Consider eight compounds from patent US9446084B2, “Use of free radical scavengers for protecting and treating skin and hair damages caused by chemotherapy” (Coty Prestige Lancaster Group GmbH, priority 2005, dated 2016).

The conditions of experiment [1]: RPF 'is known'; cited from earlier work.
Experiment [2] can be described thus: Radical protection factor (RPF) by electron spin resonance (ESR) against a test radical. The format is biochemical. From the text:
S2=signal amplitude of the antioxidant.
As has already been described, the radical protection factor (RPF) determines the activity of a substance for binding free radicals against a test substance. This test substance consists of a highly reactive, semi-stable radical which reacts with all known antioxidation agents. Such radicals include nitroxides such as proxo (2.2,5.5-tetramethyl-1-dihydropyrrolinoxy-nitroxide), tempol (2.2,6.6-tetramethyl-1-piperidinoxy-4-ol-nitroxide), DTBN (di-tert-butyl-nitroxide or preferably DPPH (1.1-diphenyl-2-picryl-hydrazyl.
The RPF is measured in such a way that the signal amplitudes of the test radical created by electron spin resonance (ESR/EPR) are measured before and after mixing with an antioxidation agent/scavenger, and the RPF is calculated from this.
Ind. […] Here, based on the known concentration of the test substance (here: DPPH) or the number of its free radicals (radicals per ml), a signal amplitude S1 is measured using an ESR spectrometer. The test radical is dissolved in the same way as the antioxidation agent in a (e.g. 0.1 m) water/alcohol solution. Then the signal amplitude S2 of the antioxidation agent is measured. The normalised difference between the two signal amplitudes is the reduction factor RF RF=(S1-S2)/S1. The result of the radical reduction of the test substance RC×RF is normalised in relation to the quantity of the product input PI (mg/ml). Here, the RC is the quantity of the test substance, i.e. the known number of radicals in the test substance. The radical protection factor is calculated according to the following equation: […]
The radical protection factor can be determined using an ESR spectrometer (GALENUS GmbH, Berlin, Germany), and is a value for labelling products with regard to their ability to bind free radicals. The procedure is an in-vitro procedure, in which no individual properties of the user influence the antioxidants.

Take `Cc1c(C)c2c(c(C)c1O)CCC(C)(CCCC(C)CCCC(C)CCCC(C)C)O2` (racemic) [DL-α-tocopherol]: in experiment [1], the “RPF known for standard antioxidation agents” value (“RPF known” for short) is reported as 41200 ×10^14 radicals/mg.

For `CC1=C(/C=C/C(C)=C/C=C/C(C)=C/CO)C(C)(C)CCC1` [all-trans-retinol], in experiment [1], the “RPF known” value was 827 ×10^14 radicals/mg. As to `CC(=O)OC/C=C(C)/C=C/C=C(C)/C=C/C1=C(C)CCCC1(C)C` [all-trans-retinolacetate], the “RPF known” value in experiment [1] is reported as 196 ×10^14 radicals/mg. With `O=C1O[C@H]([C@@H](O)CO)C([O-])=C1OP(=O)([O-])[O-].[Na+].[Na+].[Na+]` [natrium-ascorbyl-phosphate], in experiment [2] (radical scavenger as such, ESR), the “RPF (radical protection factor)” value was 35000 ×10^14 radicals/mg. On to `O=C(/C=C/c1ccc(O)c(O)c1)O[C@H](Cc1ccc(O)c(O)c1)C(=O)O` [rosemary acid], for which, in experiment [2] (radical scavenger as such, ESR), the “RPF (radical protection factor)” value was 36000-68000 ×10^14 radicals/mg. As to `O=C(OC[C@H]1O[C@@H](OC(=O)c2cc(O)c(O)c(OC(=O)c3cc(O)c(O)c(O)c3)c2)[C@H](OC(=O)c2cc(O)c(O)c(OC(=O)c3cc(O)c(O)c(O)c3)c2)[C@@H](OC(=O)c2cc(O)c(O)c(OC(=O)c3cc(O)c(O)c(O)c3)c2)[C@@H]1OC(=O)c1cc(O)c(O)c(OC(=O)c2cc(O)c(O)c(O)c2)c1)c1cc(O)c(O)c(OC(=O)c2cc(O)c(O)c(O)c2)c1` [tannic acid], the “RPF (radical protection factor)” value in experiment [2] (radical scavenger as such, ESR) is reported as 310000 ×10^14 radicals/mg. Regarding `CC(=O)Oc1c(C)c(C)c2c(c1C)CCC(C)(CCC[C@H](C)CCC[C@H](C)CCCC(C)C)O2` (stereo partly drawn) [α-tocopherylacetate], in experiment [1], the “RPF known” value is on record as 48 ×10^14 radicals/mg. For cyclodextrines, the “RPF (radical protection factor)” value in experiment [2] (unit not given) amounted to 0.
